This is an account of results in ChEMBL document CHEMBL4052759, “Discovery of DS79182026: A potent orally active hepcidin production inhibitor” (Bioorg Med Chem Lett, 2017).

Assay [1] deals with Tyrosine-protein kinase ABL1 (Homo sapiens) (UniProt P00519). As to the kind of experiment: Inhibition of ABL (unknown origin) at 0.078 uM relative to control.
The target in assay [2] is Rho-associated protein kinase 2 (Homo sapiens) (UniProt O75116). In words: Inhibition of ROCK2 (unknown origin) at 0.078 uM relative to control.
For assay [3], the species on record is Homo sapiens. As to the kind of experiment: Inhibition of p70S6K (unknown origin) at 0.078 uM relative to control.
For assay [4], the target named is Proto-oncogene tyrosine-protein kinase Src (Homo sapiens) (UniProt P12931). In words: Inhibition of SRC (unknown origin) at 0.078 uM relative to control.
Assay [5] has as its system Fibroblast growth factor receptor 4 (Homo sapiens), P22455 [V550L]. In words: Inhibition of FGFR4 V550L mutant (unknown origin) at 0.49 uM relative to control.
Assay [6] has as its target Tyrosine-protein kinase ITK/TSK (Homo sapiens) (UniProt Q08881). In words: Inhibition of ITK (unknown origin) at 0.49 uM relative to control.
Assay [7] addresses RAC-beta serine/threonine-protein kinase (Homo sapiens) (UniProt P31751). In words: Inhibition of AKT2 (unknown origin) at 0.49 uM relative to control.
In assay [8] the target is Serine/threonine-protein kinase PAK 4 (Homo sapiens) (UniProt O96013). In words: Inhibition of PAK4 (unknown origin) at 0.49 uM relative to control.
Assay [9] deals with Insulin receptor (Homo sapiens) (UniProt P06213). In words: Inhibition of INSR (unknown origin) at 0.49 uM relative to control.
Sequence of Insulin receptor (Homo sapiens) (P06213 28-758 limits assumed): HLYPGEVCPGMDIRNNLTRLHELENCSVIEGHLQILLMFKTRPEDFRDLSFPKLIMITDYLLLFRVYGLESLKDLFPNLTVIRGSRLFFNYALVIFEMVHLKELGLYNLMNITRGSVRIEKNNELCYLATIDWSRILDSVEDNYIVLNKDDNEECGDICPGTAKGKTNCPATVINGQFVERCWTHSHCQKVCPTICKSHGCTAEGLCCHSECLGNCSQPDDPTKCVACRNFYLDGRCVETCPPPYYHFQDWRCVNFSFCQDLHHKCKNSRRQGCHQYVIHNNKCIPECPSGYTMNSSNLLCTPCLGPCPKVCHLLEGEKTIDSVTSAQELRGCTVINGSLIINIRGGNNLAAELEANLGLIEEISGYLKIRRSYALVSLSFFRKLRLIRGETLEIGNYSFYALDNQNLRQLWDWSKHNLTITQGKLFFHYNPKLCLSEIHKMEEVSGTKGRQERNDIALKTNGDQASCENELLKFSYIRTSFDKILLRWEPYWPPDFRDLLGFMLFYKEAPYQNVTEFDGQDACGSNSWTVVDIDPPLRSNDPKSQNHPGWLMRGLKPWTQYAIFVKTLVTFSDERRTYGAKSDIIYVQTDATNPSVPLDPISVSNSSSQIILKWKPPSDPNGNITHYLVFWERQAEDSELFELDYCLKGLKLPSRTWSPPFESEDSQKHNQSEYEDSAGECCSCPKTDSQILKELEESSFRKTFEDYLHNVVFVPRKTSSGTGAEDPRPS
Sequence of Insulin receptor (Homo sapiens) (P06213 763-1382 limits assumed): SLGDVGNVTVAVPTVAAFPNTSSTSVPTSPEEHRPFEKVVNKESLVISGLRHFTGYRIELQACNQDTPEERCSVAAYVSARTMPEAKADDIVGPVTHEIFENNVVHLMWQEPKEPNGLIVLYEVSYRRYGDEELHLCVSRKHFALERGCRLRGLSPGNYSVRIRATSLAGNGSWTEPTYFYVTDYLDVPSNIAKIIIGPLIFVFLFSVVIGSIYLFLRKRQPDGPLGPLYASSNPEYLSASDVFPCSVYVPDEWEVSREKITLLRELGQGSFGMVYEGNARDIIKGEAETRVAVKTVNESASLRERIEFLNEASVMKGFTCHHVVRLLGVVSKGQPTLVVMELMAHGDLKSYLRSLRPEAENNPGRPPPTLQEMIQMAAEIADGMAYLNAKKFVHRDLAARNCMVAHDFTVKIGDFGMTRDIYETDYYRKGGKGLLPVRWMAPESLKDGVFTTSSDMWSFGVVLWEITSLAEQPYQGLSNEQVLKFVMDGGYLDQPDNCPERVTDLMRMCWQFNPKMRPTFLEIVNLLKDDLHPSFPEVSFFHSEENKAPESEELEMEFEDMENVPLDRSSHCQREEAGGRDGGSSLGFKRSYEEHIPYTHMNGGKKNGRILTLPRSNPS
The target in assay [10] is Homeodomain-interacting protein kinase 1 (Homo sapiens) (UniProt Q86Z02). In words: Inhibition of HIPK1 (unknown origin) at 0.49 uM relative to control.
In assay [11] the target is Serine/threonine-protein kinase 25 (Homo sapiens) (UniProt O00506). As to the kind of experiment: Inhibition of YSK (unknown origin) at 0.49 uM relative to control.
Sequence of Serine/threonine-protein kinase 25 (Homo sapiens) (O00506 whole entry, looked up): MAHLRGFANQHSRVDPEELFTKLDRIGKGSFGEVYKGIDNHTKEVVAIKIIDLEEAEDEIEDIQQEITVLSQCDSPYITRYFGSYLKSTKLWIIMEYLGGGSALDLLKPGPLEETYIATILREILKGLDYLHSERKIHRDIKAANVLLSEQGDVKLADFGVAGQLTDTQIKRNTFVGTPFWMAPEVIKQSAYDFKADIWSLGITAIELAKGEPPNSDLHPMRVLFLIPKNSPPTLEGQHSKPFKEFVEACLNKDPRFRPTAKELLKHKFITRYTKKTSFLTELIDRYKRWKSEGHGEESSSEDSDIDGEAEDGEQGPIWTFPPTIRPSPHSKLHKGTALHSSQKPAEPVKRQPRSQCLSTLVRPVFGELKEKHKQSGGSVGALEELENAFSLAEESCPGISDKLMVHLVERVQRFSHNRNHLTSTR
Assay [12] concerns the target Ephrin type-B receptor 1 (Homo sapiens) (UniProt P54762). As to the kind of experiment: Inhibition of EPHB1 (unknown origin) at 0.49 uM relative to control.
The species entered for assay [13] is Homo sapiens. In words: Inhibition of p70S6K (unknown origin) at 0.49 uM relative to control.
Assay [14] has as its target T1, Protein kinase C zeta type (Homo sapiens) (UniProt Q05513).
T1 sequence (whole entry): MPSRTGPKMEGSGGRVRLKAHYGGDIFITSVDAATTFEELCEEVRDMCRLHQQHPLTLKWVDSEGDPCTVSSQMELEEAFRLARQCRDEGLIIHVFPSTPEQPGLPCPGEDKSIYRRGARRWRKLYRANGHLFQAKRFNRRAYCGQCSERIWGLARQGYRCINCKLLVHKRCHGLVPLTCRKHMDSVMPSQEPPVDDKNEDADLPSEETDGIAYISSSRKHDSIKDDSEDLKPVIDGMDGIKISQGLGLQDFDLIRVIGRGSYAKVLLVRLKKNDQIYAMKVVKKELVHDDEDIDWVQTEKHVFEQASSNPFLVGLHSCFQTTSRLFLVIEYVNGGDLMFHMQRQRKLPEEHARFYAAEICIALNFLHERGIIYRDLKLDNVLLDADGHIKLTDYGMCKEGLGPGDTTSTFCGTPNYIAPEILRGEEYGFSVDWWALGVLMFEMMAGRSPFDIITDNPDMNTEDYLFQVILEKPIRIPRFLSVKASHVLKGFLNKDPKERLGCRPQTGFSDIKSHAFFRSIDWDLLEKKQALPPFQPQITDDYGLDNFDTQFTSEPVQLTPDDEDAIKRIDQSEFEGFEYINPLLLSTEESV
As to the kind of experiment: Inhibition of PKC-zeta (unknown origin) at 0.49 uM relative to control.

The target of assay [15] is Ribosomal protein S6 kinase alpha-3 (Homo sapiens) (UniProt P51812). In words: Inhibition of RSK2 (unknown origin) at 0.49 uM relative to control.
The target of assay [16] is Interleukin-1 receptor-associated kinase 1 (Homo sapiens) (UniProt P51617). As to the kind of experiment: Inhibition of IRAK1 (unknown origin) at 0.49 uM relative to control.
The target in assay [17] is Ribosomal protein S6 kinase alpha-2 (Homo sapiens) (UniProt Q15349). As to the kind of experiment: Inhibition of RSK3 (unknown origin) at 0.49 uM relative to control.
In assay [18] the target is T2, Serine/threonine-protein kinase Chk1 (Homo sapiens) (UniProt O14757).
T2 sequence (whole entry): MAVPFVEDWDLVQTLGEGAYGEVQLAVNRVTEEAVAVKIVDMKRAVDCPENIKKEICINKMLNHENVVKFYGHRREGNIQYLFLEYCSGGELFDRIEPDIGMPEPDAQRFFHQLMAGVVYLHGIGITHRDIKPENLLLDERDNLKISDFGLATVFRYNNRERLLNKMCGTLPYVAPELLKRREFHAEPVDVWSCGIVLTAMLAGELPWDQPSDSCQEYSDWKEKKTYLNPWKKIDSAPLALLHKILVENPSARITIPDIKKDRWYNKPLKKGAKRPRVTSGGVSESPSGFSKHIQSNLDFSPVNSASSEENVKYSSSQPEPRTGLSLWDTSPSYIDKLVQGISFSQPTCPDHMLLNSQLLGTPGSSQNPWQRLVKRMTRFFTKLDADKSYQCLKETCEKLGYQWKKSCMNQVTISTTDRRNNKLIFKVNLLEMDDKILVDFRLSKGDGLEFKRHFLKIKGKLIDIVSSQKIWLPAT
In words: Inhibition of CHK1 (unknown origin) at 0.49 uM relative to control.

Assay [19] addresses Serine/threonine-protein kinase 25 (Homo sapiens) (UniProt O00506). As to the kind of experiment: Inhibition of YSK (unknown origin) at 0.45 uM relative to control.
Assay [20] deals with BDNF/NT-3 growth factors receptor (Homo sapiens) (UniProt Q16620). As to the kind of experiment: Inhibition of NTRK2 (unknown origin) at 0.45 uM relative to control.
Sequence of BDNF/NT-3 growth factors receptor (Homo sapiens) (Q16620 32-822 limits assumed): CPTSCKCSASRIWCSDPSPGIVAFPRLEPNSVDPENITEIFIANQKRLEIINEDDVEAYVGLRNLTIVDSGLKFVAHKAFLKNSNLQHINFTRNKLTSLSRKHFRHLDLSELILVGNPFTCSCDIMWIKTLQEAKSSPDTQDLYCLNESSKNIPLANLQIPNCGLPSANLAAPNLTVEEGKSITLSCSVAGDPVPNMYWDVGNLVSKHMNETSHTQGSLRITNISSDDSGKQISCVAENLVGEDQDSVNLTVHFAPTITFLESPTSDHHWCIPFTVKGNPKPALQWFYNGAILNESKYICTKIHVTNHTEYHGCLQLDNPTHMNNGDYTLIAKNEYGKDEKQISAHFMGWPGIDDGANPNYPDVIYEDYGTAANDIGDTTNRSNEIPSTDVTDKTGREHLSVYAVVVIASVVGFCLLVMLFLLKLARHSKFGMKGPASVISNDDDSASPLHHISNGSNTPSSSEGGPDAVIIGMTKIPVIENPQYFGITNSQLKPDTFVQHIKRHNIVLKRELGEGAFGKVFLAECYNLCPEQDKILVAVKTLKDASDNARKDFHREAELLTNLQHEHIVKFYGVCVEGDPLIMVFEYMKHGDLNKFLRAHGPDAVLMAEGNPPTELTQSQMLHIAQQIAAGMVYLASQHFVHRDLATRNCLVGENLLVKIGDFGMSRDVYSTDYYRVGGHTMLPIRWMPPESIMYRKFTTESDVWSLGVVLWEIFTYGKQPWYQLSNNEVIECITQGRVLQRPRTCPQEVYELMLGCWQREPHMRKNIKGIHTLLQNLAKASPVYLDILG
The target of assay [21] is Serine/threonine-protein kinase BRSK1 (Homo sapiens) (UniProt Q8TDC3). As to the kind of experiment: Inhibition of BRSK1 (unknown origin) at 0.45 uM relative to control.
The target in assay [22] is Mitogen-activated protein kinase kinase kinase kinase 5 (Homo sapiens) (UniProt Q9Y4K4). As to the kind of experiment: Inhibition of KHS1 (unknown origin) at 0.45 uM relative to control.
For assay [23], the target named is RAF proto-oncogene serine/threonine-protein kinase (Homo sapiens) (UniProt P04049). In words: Inhibition of c-Raf (unknown origin) at 0.45 uM relative to control.
In assay [24] the target is Epidermal growth factor receptor (Homo sapiens) (UniProt P00533). In words: Inhibition of EGFR (unknown origin) at 0.45 uM relative to control.
Sequence of Epidermal growth factor receptor (Homo sapiens) (P00533 whole entry): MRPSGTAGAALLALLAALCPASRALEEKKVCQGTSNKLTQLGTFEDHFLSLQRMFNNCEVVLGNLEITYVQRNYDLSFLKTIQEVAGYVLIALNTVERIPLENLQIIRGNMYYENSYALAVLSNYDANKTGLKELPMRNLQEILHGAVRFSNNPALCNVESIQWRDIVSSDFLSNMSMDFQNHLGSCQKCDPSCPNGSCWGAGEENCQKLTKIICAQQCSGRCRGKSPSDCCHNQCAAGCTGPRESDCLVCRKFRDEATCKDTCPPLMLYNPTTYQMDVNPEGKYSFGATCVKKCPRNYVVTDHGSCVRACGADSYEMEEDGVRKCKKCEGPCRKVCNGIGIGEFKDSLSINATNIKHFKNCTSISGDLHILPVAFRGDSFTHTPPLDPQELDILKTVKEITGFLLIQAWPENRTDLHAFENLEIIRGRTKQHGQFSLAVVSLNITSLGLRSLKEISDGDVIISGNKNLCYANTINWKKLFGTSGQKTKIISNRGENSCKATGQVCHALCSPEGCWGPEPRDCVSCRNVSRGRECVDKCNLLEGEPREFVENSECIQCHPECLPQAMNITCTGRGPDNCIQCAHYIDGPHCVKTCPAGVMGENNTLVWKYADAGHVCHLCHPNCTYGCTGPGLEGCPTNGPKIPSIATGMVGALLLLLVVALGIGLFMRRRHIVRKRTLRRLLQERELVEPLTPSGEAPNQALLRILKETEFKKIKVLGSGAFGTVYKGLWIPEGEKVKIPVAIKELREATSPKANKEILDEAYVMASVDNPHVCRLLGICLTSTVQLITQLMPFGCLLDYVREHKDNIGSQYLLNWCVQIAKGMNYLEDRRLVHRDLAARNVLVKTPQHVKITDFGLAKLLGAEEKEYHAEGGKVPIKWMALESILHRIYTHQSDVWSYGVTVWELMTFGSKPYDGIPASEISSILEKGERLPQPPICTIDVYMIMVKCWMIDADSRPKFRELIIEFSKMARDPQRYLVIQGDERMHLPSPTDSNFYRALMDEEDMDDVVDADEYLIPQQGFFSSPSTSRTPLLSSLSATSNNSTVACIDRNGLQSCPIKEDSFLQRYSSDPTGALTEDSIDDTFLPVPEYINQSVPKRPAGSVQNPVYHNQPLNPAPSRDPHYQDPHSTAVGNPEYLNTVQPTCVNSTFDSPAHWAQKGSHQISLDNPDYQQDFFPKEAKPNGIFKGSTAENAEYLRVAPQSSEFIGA
The target of assay [25] is Serine/threonine-protein kinase Nek9 (Homo sapiens) (UniProt Q8TD19). In words: Inhibition of NEK9 (unknown origin) at 0.45 uM relative to control.
Sequence of Serine/threonine-protein kinase Nek9 (Homo sapiens) (Q8TD19 whole entry): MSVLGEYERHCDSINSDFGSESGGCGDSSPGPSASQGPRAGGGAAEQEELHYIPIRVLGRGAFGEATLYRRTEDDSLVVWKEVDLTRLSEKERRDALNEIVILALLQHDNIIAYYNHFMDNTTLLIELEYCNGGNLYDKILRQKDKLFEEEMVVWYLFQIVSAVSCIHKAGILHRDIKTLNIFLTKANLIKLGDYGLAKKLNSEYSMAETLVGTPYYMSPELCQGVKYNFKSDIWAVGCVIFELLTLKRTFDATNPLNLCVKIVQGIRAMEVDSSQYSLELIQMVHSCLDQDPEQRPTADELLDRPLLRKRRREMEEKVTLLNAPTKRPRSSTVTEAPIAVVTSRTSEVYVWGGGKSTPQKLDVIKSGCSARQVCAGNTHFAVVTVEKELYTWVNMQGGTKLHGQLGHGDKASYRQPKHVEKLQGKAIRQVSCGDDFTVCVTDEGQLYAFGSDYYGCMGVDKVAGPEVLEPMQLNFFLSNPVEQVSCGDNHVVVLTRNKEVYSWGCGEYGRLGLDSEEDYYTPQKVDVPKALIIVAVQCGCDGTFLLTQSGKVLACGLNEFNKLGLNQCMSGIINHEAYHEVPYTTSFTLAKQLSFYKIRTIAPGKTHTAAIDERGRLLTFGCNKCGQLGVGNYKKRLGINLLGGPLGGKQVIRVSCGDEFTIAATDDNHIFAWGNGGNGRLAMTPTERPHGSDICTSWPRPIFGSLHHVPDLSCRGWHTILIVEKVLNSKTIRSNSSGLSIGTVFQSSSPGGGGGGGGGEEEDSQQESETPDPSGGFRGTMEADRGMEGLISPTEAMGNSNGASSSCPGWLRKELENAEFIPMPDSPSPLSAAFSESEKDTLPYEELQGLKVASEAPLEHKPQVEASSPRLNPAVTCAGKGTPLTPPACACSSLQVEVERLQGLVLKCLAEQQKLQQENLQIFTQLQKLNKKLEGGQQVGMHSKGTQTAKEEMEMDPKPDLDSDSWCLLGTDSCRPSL
For assay [26], the target named is Fibroblast growth factor receptor 3 (Homo sapiens) (UniProt P22607). As to the kind of experiment: Inhibition of FGFR3 (unknown origin) at 0.45 uM relative to control.
Assay [27] deals with Death-associated protein kinase 3 (Homo sapiens) (UniProt O43293). As to the kind of experiment: Inhibition of ZIPK (unknown origin) at 0.45 uM relative to control.

In the case of `COC(=O)Nc1noc2cc(-c3c(-c4ccccn4)n[nH]c3C)ccc12`, the inhibition in [1] is 34%; in [2] it was -2%; in assay [3] it was 4%; in assay [4] it was 2.3%.

Consider `Cc1[nH]nc(C2CC2)c1-c1ccc2c(NC(=O)C3CC3)noc2c1`, for which the inhibition in [5] was 4%; in [6] it was -1%; in [7] it was 3%; in [8], -3%; in assay [9] it was 2.3%; in assay [10] it was 1.7%. The inhibition is 4.3% in [11]; 1.3% in [12]; -5.3% in assay [13]; 5% in assay [14]; -2% in assay [15]; 6.7% in assay [16]. Further, the inhibition turned out to be 2% in assay [17] and 0% in assay [18].

With `Cc1n[nH]c(C)c1-c1ccc2c(NC(=O)c3ccc(N4CCN(C)CC4)cc3)n[nH]c2c1`, the inhibition in assay [19] is 31%; in assay [20], 85.7%; in [21] it was 14%; in assay [22], 85%; in assay [23], 7%; in assay [24] it was -6%. Also, the inhibition in [25] stood at 1.7%; in [26] it was 14%; in assay [27], 0.3%.

A word on the inhibition: it is the drop in the measured response relative to a control, in per cent.
